The values that follow come from ChEMBL document CHEMBL1143532 (Bioorg Med Chem Lett, 2005).

Molecules are shown by their SMILES.

For test [1], the target named is Neuronal acetylcholine receptor; alpha4/beta2 (Homo sapiens, UniProt P17787+P43681). The test can be described thus: Binding affinity towards Nicotinic acetylcholine receptor alpha4-beta2; Not significant. In kind it is protein complex.
In test [2] the target is T1, Neuronal acetylcholine receptor subunit alpha-7 (Rattus norvegicus, UniProt Q05941). Nature of the test: Inhibitory constant against [3H]methyllycaconitine binding towards Nicotinic acetylcholine receptor alpha-7 of rat brain hippocampus. The test is classed as tissue-based.
T1 sequence (Q05941 whole entry): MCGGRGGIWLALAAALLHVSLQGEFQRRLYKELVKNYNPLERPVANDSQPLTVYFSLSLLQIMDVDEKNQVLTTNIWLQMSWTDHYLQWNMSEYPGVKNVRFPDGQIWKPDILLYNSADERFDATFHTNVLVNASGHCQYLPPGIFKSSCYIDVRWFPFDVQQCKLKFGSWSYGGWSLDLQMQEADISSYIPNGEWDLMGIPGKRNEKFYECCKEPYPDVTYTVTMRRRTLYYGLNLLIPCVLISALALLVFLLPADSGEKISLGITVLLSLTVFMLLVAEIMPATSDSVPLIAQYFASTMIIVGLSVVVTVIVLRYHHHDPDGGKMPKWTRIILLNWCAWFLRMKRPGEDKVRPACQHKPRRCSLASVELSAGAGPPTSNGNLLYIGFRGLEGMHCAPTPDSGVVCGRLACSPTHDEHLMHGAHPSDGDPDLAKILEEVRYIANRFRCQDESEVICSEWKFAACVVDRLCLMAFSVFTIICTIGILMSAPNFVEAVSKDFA
The target in test [3] is T1, Neuronal acetylcholine receptor subunit alpha-7. Nature of the test: Potency against rat nicotinic acetylcholine alpha-7 subunit expressed in Xenopus oocytes as current activation. The test is classed as functional, cell-based, Oocyte.
Test [4] has as its target Neuronal acetylcholine receptor subunit alpha-7 (Rattus norvegicus) (UniProt Q05941). Nature of the test: Intrinsic activity against rat nicotinic acetylcholine alpha-7 subunit expressed in Xenopus oocytes as current activation. To be noted: Oocyte. In kind it is functional, cell-based.

Sequence of Neuronal acetylcholine receptor; alpha4/beta2 (P17787 whole entry): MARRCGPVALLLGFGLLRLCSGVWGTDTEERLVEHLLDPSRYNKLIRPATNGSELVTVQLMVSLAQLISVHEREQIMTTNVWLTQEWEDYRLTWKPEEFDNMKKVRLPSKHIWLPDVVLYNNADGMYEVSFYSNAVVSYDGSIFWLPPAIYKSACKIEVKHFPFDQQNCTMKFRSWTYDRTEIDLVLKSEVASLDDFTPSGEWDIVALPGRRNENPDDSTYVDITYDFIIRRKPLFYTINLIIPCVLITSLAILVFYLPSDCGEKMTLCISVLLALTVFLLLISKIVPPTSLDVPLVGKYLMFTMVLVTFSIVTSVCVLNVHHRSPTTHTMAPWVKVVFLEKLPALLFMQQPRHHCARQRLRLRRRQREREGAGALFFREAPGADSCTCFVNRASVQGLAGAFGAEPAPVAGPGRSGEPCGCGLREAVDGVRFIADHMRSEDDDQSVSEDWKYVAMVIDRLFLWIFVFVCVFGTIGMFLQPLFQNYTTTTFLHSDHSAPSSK
Sequence of Neuronal acetylcholine receptor; alpha4/beta2 (P43681 whole entry): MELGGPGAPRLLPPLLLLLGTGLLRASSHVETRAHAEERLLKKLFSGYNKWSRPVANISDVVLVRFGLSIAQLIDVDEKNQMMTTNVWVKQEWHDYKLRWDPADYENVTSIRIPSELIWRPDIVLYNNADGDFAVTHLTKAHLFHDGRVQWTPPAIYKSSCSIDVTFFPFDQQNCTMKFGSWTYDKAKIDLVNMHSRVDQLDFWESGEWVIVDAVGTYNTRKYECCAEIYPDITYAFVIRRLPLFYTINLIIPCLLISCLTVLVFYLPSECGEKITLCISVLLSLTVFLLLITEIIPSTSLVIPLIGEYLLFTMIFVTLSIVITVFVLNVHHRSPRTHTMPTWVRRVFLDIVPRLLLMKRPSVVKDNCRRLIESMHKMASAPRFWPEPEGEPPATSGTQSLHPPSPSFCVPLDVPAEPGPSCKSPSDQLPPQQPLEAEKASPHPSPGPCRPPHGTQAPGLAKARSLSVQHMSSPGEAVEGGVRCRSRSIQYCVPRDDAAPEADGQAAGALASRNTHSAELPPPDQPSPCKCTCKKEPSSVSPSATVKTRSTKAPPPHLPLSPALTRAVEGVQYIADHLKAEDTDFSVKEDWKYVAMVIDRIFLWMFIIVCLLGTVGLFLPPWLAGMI
Sequence of Neuronal acetylcholine receptor subunit alpha-7 (Rattus norvegicus) (Q05941 whole entry): as the sequence (Q05941 whole entry) above

On to `O=C(NCc1ccc(Br)cc1)N[C@@H]1C2CCN(CC2)[C@@H]1Cc1cccnc1`, for which the Ki in test [1] was above 10000 nM; in test [2], 274 nM.

With `O=C(Nc1ccc(Br)cc1)O[C@@H]1C2CCN(CC2)[C@@H]1Cc1ccco1`, the results for the Ki in test [1] and in test [2] were above 10000 nM and 234 nM, respectively.

In the case of `O=C(Nc1ccc(Br)cc1)O[C@@H]1C2CCN(CC2)[C@@H]1Cc1ccccn1`, the Ki in test [1] and in test [2] was above 10000 nM in each case.

With `O=C(N[C@@H]1C2CCN(CC2)[C@@H]1Cc1cccnc1)c1ccc(Sc2ccccc2)cc1`, in test [1], the Ki was above 10000 nM.

Take `COc1ccc(NC(=O)N[C@@H]2C3CCN(CC3)[C@@H]2Cc2cccnc2)cc1`: the Ki in test [1] is above 10000 nM; in test [2] it was 37 nM.

With `O=C(N[C@@H]1C2CCN(CC2)[C@@H]1Cc1cccnc1)c1csc(Br)c1`, the results for the Ki in test [1] and in test [2] were above 10000 nM and 0.4 nM, respectively.

For `O=S(=O)(N[C@@H]1C2CCN(CC2)[C@@H]1Cc1cccnc1)c1ccccc1`, the Ki in test [1] is above 10000 nM; in test [2], 418 nM.

`O=C(Nc1ccc(Oc2ccccc2)cc1)N[C@@H]1C2CCN(CC2)[C@@H]1Cc1cccnc1`: the Ki in test [1] was above 10000 nM; in test [2], 16 nM.

In test [1], `O=C(Nc1ccc(Br)cc1)O[C@@H]1C2CCN(CC2)[C@@H]1Cc1cccnc1` gave an inhibitory constant (Ki) above 10000 nM.

In the case of `O=C(Nc1ccc(Br)cc1)O[C@@H]1C2CCN(CC2)[C@@H]1Cc1cnc2ccccc2c1`, the figures for the Ki in test [1] and in test [2] were above 10000 nM and 10000 nM, respectively.

Turning to `O=C(N[C@@H]1C2CCN(CC2)[C@@H]1Cc1cccnc1)c1c[nH]c2ccccc12`, the values for the inhibitory constant (Ki) in test [1] and in test [2] were above 10000 nM and 8 nM, respectively.

As for `COc1ccc(NC(=O)N[C@@H]2C3CCN(CC3)[C@@H]2Cc2cccnc2)c(OC)c1`, the figures for the inhibitory constant (Ki) in test [1] and in test [2] were above 10000 nM and 31 nM, respectively.

On to `O=C(N[C@@H]1C2CCN(CC2)[C@@H]1Cc1cccnc1)c1ccsc1`, for which the results for the Ki in test [1] and in test [2] were above 10000 nM and 790 nM, respectively.

Regarding `O=C(Nc1ccc(F)cc1)N[C@@H]1C2CCN(CC2)[C@@H]1Cc1cccnc1`, the Ki in test [1] is above 10000 nM; in test [2], 74 nM.

In test [1], `O=C(NC1CC1c1ccccc1)N[C@@H]1C2CCN(CC2)[C@@H]1Cc1cccnc1` (some centres not stated) returned a Ki above 10000 nM.

As to `O=C(Nc1ccc(Br)cc1)O[C@@H]1C2CCN(CC2)[C@@H]1Cc1cc2ccccc2o1`, the Ki in test [1] was above 10000 nM; in test [2] it was 8390 nM.

Regarding `C/C(=C\c1ccccc1)C(=O)N[C@@H]1C2CCN(CC2)[C@@H]1Cc1cccnc1`, the Ki in test [1] was above 10000 nM; in test [2], 5 nM.

In the case of `O=C(Nc1cccc(C(F)(F)F)c1)N[C@@H]1C2CCN(CC2)[C@@H]1Cc1cccnc1`, the Ki in test [1] was above 10000 nM; in test [2], 91 nM.

For the compound `Cn1cc(C(=O)N[C@@H]2C3CCN(CC3)[C@@H]2Cc2cccnc2)c2ccccc21`, the Ki in test [1] is above 10000 nM; in test [2] it was 521 nM.

As to `COc1cncc(C[C@@H]2[C@H](OC(=O)Nc3ccc(Br)cc3)C3CCN2CC3)c1`, the Ki is above 10000 nM in test [1] and 144 nM in test [2].

`O=S(=O)(Cc1ccccc1)N[C@@H]1C2CCN(CC2)[C@@H]1Cc1cccnc1`: the values for the Ki in test [1] and in test [2] were above 10000 nM and 8840 nM, respectively.

Consider `O=C(Nc1ccccc1)O[C@@H]1C2CCN(CC2)[C@@H]1Cc1cccnc1`, for which the Ki in test [1] is above 10000 nM.

Consider `O=C(Nc1cccc(F)c1)N[C@@H]1C2CCN(CC2)[C@@H]1Cc1cccnc1`, for which the Ki in test [1] is above 10000 nM; in test [2], 6 nM.

`O=C(NCc1ccccc1)O[C@@H]1C2CCN(CC2)[C@@H]1Cc1cccnc1`: the Ki in test [1] is above 10000 nM; in test [2], 670 nM.

As to `O=C(Nc1ccc(Br)cc1)O[C@@H]1C2CCN(CC2)[C@@H]1Cc1ccc(F)cc1`, the Ki in test [1] is above 10000 nM; in test [2], 263 nM.

`O=C(N[C@@H]1C2CCN(CC2)[C@@H]1Cc1cccnc1)c1ccc2ccccc2c1O`: the Ki is above 10000 nM in test [1] and 1 nM in test [2].

In the case of `COc1ccc(S(=O)(=O)N[C@@H]2C3CCN(CC3)[C@@H]2Cc2cccnc2)cc1`, the inhibition constant Ki in test [1] was above 10000 nM; in test [2], 8920 nM.

In the case of `O=C(Nc1ccc(Br)cc1)OC1CN2CCC1CC2` (configuration not stated), in test [1], the Ki was above 10000 nM.

As for `CC(C)Oc1cncc(C[C@@H]2[C@H](OC(=O)Nc3ccc(Br)cc3)C3CCN2CC3)c1`, the Ki is above 10000 nM in test [1] and 7020 nM in test [2].

As to `O=C(Nc1ccc(Br)cc1)O[C@@H]1C2CCN(CC2)[C@@H]1Cc1cnccc1Oc1ccccc1`, the Ki in test [1] and in test [2] was above 10000 nM each time.

`O=C(Nc1ccc(Br)cc1)O[C@@H]1C2CCN(CC2)[C@@H]1Cc1cncnc1`: the figures for the Ki in test [1] and in test [2] were above 10000 nM and 40 nM, respectively.

For the compound `O=C(Nc1ccc(-c2ccccc2)cc1)N[C@@H]1C2CCN(CC2)[C@@H]1Cc1cccnc1`, the Ki was above 10000 nM in test [1] and 424 nM in test [2].

`N#Cc1cccc(NC(=O)N[C@@H]2C3CCN(CC3)[C@@H]2Cc2cccnc2)c1`: the Ki in test [1] is above 10000 nM; in test [2], 170 nM.

Consider `O=C(Nc1ccc(Br)cc1)N[C@@H]1C2CCN(CC2)[C@@H]1Cc1cccnc1`, for which the Ki in test [1] was above 10000 nM; in test [2], 9 nM.

In turn, `O=C(Nc1ccccc1)OC1CN2CCC1CC2` (configuration not stated) registered a Ki in test [1] above 10000 nM.

For `O=C(Nc1ccc(Cl)c(Cl)c1)N[C@@H]1C2CCN(CC2)[C@@H]1Cc1cccnc1`, the Ki is above 10000 nM in test [1] and 34 nM in test [2].

As to `Cn1cccc1C(=O)N[C@@H]1C2CCN(CC2)[C@@H]1Cc1cccnc1`, the Ki was above 10000 nM in test [1] and 155 nM in test [2].

`O=C(Nc1ccc(Br)cc1)O[C@@H]1C2CCN(CC2)[C@@H]1Cn1ccnc1`: the Ki was above 10000 nM in test [1] and 10 nM in test [2].

Take `O=C(Nc1ccccc1)N[C@@H]1C2CCN(CC2)[C@@H]1Cc1cccnc1`: the Ki in test [1] is above 10000 nM; in test [2], 16 nM.

As to `COc1ccncc1C[C@@H]1[C@H](OC(=O)Nc2ccc(Br)cc2)C2CCN1CC2`, the results for the Ki in test [1] and in test [2] were above 10000 nM and 29 nM, respectively.

As to `COc1cccc(NC(=O)N[C@@H]2C3CCN(CC3)[C@@H]2Cc2cccnc2)c1`, the figures for the Ki in test [1] and in test [2] were above 10000 nM and 43 nM, respectively.

On to `CS(=O)(=O)c1ccc(C[C@@H]2[C@H](OC(=O)Nc3ccc(Br)cc3)C3CCN2CC3)cc1`, for which the inhibitory constant (Ki) in test [1] was above 10000 nM; in test [2], 6780 nM.

For the compound `COc1ccccc1NC(=O)N[C@@H]1C2CCN(CC2)[C@@H]1Cc1cccnc1`, the Ki is above 10000 nM in test [1] and 30 nM in test [2].

Take `C/C(=C\C(=O)N[C@@H]1C2CCN(CC2)[C@@H]1Cc1cccnc1)c1ccccc1`: the results for the Ki in test [1] and in test [2] were above 10000 nM and 87 nM, respectively.

For the compound `O=S(=O)(N[C@@H]1C2CCN(CC2)[C@@H]1Cc1cccnc1)c1ccc(Br)cc1`, the Ki in test [1] is above 10000 nM.

As to `O=C(Nc1ccc(Oc2ccccc2)cc1)O[C@@H]1C2CCN(CC2)[C@@H]1Cc1cccnc1`, the Ki is above 10000 nM in test [1] and 50 nM in test [2].

For the compound `O=C(Nc1ccc(-c2ccccc2)cc1)O[C@@H]1C2CCN(CC2)[C@@H]1Cc1cccnc1`, the figures for the Ki in test [1] and in test [2] were above 10000 nM and 500 nM, respectively.

As to `O=C(Nc1ccc(Sc2ccccc2)cc1)O[C@@H]1C2CCN(CC2)[C@@H]1Cc1cccnc1`, the Ki in test [1] was above 10000 nM; in test [2], 9 nM.

On to `COc1ccc(NC(=O)O[C@@H]2C3CCN(CC3)[C@@H]2Cc2cccnc2)cc1`, for which the inhibition constant (Ki) in test [1] is above 10000 nM; in test [2], 5 nM. In addition, the EC50 in test [3] worked out at 300 nM. The compound also registered an Imax in test [4] of 0.19.

On to `COc1ccc(C[C@@H]2[C@H](OC(=O)Nc3ccc(Br)cc3)C3CCN2CC3)cc1`, for which the Ki in test [1] and in test [2] was above 10000 nM throughout.

With `NC(=O)Cc1ccc(S(=O)(=O)N[C@@H]2C3CCN(CC3)[C@@H]2Cc2cccnc2)cc1`, the figures for the Ki in test [1] and in test [2] were above 10000 nM and 146 nM, respectively.

Turning to `CSc1ccc(NC(=O)N[C@@H]2C3CCN(CC3)[C@@H]2Cc2cccnc2)cc1`, the Ki in test [1] was above 10000 nM; in test [2] it was 6 nM.

Take `O=C(NC1CC1c1ccccc1)O[C@@H]1C2CCN(CC2)[C@@H]1Cc1cccnc1` (some centres not stated): the values for the inhibition constant Ki in test [1] and in test [2] were above 10000 nM and 103 nM, respectively.

As to `O=C(N[C@@H]1C2CCN(CC2)[C@@H]1Cc1cccnc1)c1cccc(Br)c1`, the Ki in test [1] is above 10000 nM; in test [2], 64 nM.

For `O=C(Nc1ccc(Br)cc1)O[C@@H]1C2CCN(CC2)[C@@H]1Cc1ccsc1`, the Ki in test [1] was above 10000 nM; in test [2] it was 534 nM.

Consider `O=C(Nc1ccc(F)cc1)O[C@@H]1C2CCN(CC2)[C@@H]1Cc1cccnc1`, for which the figures for the Ki in test [1] and in test [2] were above 10000 nM and 6 nM, respectively.

In test [4], `O=C(N[C@@H]1C2CCN(CC2)[C@@H]1Cc1cccnc1)c1cc2ccccc2o1` returned an Imax of 1.

Regarding `O=C(Nc1ccc(Br)cc1)O[C@@H]1C2CCN(CC2)[C@@H]1Cc1ccccc1`, the Ki in test [1] is above 10000 nM; in test [2], 838 nM.

Take `CN(C)c1ccc(C[C@@H]2[C@H](OC(=O)Nc3ccc(Br)cc3)C3CCN2CC3)cc1`: the Ki in test [1] is above 10000 nM.

Turning to `CN(C)c1ccc(NC(=O)N[C@@H]2C3CCN(CC3)[C@@H]2Cc2cccnc2)cc1`, the inhibition constant (Ki) was above 10000 nM in test [1] and 38 nM in test [2].

For `O=C(Nc1cccc(Br)c1)N[C@@H]1C2CCN(CC2)[C@@H]1Cc1cccnc1`, the figures for the Ki in test [1] and in test [2] were above 10000 nM and 52 nM, respectively.

Turning to `O=C(Nc1ccc(Sc2ccccc2)cc1)OC1CN2CCC1CC2` (configuration not stated), the Ki in test [1] is above 10000 nM; in test [2], 53 nM.

A word on the Ki: it is a dissociation constant, usually derived from enzyme kinetics or from competition with a known ligand. Lower therefore signals higher affinity. The term EC50 denotes the concentration that produces a half-maximal response. A high value points to weaker potency.
